{"source": "patent US20240188563A1", "about": "“CATHETER LOCK SOLUTIONS INCORPORATING NITRIC OXIDE RELEASING LIPOSOMES” (Becton, Dickinson and Company, priority 2022, published 2024)", "origin": "cited, not measured here", "system": "platelets", "conditions": "extracorporeal circuit"}
{"molecule": "CC(=O)N[C@H](C(=O)O)C(C)(C)SN=O", "note": "[SNAP only, S-nitroso-N-acetyl penicillamine]", "values": [{"measurement": "Platelet count after 4 h (% of initial)", "value": "vs. 50% (SNAP only)"}]}
